How the values were obtained:
[1] = target: T1, LTD4 (guinea pig ileum and trachea) (Cavia porcellus, UniProt Q2NNR5); assay: LTD4 antagonism, cumulative concentration-response curves to LTD4 (KB / pA2, Schild); type: cell-based; details: negative log of KB, 30 minute incubation
T1 construct: A section of terminal ileum was removed, the lumen cleaned, and the tissue divided into 2.5 cm. segments; from tissue; host or cells: isolated ileum and trachea of guinea pig (ileum: male Hartley, terminal ileum)
T1 sequence (Q2NNR5 1-340): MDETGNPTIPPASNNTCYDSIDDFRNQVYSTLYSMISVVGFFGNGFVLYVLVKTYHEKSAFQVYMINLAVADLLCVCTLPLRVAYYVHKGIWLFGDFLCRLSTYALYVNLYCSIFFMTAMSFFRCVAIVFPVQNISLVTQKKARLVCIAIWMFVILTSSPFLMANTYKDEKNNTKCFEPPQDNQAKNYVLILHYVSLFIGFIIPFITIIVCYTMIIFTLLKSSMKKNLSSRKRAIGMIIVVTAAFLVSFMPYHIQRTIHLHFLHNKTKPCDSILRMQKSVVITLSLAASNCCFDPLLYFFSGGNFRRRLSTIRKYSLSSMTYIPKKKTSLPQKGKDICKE
Protocol: (§1) Male, Hartley guinea pigs weighing 200-450 grams were killed by decapitation. A section of terminal ileum was removed, the lumen cleaned, and the tissue divided into 2.5 cm. segments. The ilea were mounted in 10 ml. tissue baths containing Krebs-bicarbonate solution of the following composition in mmoles/ liter: KCl, 4.6; CaCl2 ·2H2 O, 1.2; KH2 PO4, 1.2; MgSO4 ·7H2 O, 1.2; NaCl, 118.2; NaHCO3, 24.8; and dextrose, 10.0. The bath fluid was maintained at 37° C. and aerated with 95 percent oxygen and 5 percent CO2. In addition, the buffer contained 1×10^- 6M atropine to reduce ileal spontaneous activity. Isometric measurements were made with a Grass FTO3C force-displacement transducer and recorded on a Grass polygraph as change in grams of force. A passive force of 0.5 g. was applied to the tissues. After an appropriate equilibration period, single submaximal control responses to pure LTD4 were obtained. Following a five minute exposure of the ileum to an experimental drug, the control concentration of LTD4 was added to the tissue bath. The response of the ileum to LTD4 in the presence of the drug was compared to the response in the absence of the drug. For some of the drugs in this series a more detailed analysis of LTD4 antagonism was made. In these experiments, cumulative concentration-response curves were obtained to LTD4 in guinea pig ileum and trachea. This was followed by a 30 minute incubation with various concentrations of the experimental drug. The concentration response curve to LTD4 was then repeated in the presence of the antagonist. Only one concentration of antagonist was used on a single tissue. KB values were calculated by the method of Furchgott [Ann. N.Y. Acad. Sci., 139, 553 (1967)]using the following equation. [formula]
Dose ratio refers to the concentration of agonist required to elicit 50 percent of the maximal response (ED50) in the presence of the antagonist divided by the ED50 in the absence of the antagonist. Calculations were performed with the aid of a computer and a digital plotter.

[2] = tested on: LTD4 evoked ileal contractions (guinea pig ileum); assay: Inhibition of LTD4 evoked contractions in isolated ileum (single submaximal LTD4 response, five minute drug exposure); type: cell-based, Male, Hartley guinea pigs; details: Cavia porcellus, read-out: Percent inhibition of LTD4 evoked ileal contractions; for inhibition at 1 µM: Compound concentration 1 × 10^-6 M; for inhibition at 3 µM: Compound concentration 3 × 10^-6 M; for inhibition at 0.1 µM: Compound concentration 1 × 10^-7 M; for inhibition at 0.3 µM: Compound concentration 3 × 10^-7 M
Protocol: as §1, with “A” for “Male, Hartley guinea pigs weighing 200-450 grams were killed by decapitation. A”

SMILES: CCCc1c(OCCCCCCc2nn[nH]n2)ccc(Cl)c1Cl [Example 4, 5-[6-(2-Propyl-3,4-dichlorophenoxy)hexyl]-tetrazole]
- pA2 ([1]; *estimated): 7.0
- inhibition at 1 µM [2]: 84%
- inhibition at 3 µM [2]: 96%

SMILES: CCCc1c(OCCCCc2nnn[nH]2)ccc(Cl)c1O [Example 11, 5-[4-(2-Propyl-3-hydroxy-4-chlorophenoxy)butyl]-tetrazole]
- Kb ([1]; *estimated): 3160 nM
- inhibition at 3 µM [2]: 20%

SMILES: CCCc1c(OCCCCc2nnn[nH]2)ccc(C(C)=O)c1Cl [Example 5, 5-[4-(2-Propyl-3-chloro-4-acetylphenoxy)butyl]-tetrazole]
- Kb ([1]; *estimated): 105 nM
- inhibition at 0.1 µM [2]: 49%
- inhibition at 0.3 µM [2]: 73%

SMILES: CCCc1c(OCCCSc2nn[nH]n2)ccc(Cl)c1Cl [Example 8, 5-[3-(2-Propyl1-3,4-dichlorophenoxy)propanethio]-tetrazole]
- inhibition at 0.1 µM [2]: 59%
- inhibition at 0.3 µM [2]: 79%

SMILES: CCCCCc1c(OCCCCCC(=O)O)ccc(Cl)c1Cl [Example 9, 6-(2-Pentyl-3,4-dichlorophenoxy)hexanoic acid]
- inhibition at 1 µM [2]: 21%
- inhibition at 3 µM [2]: 57%

SMILES: CCCc1c(OCCCCCc2nnn[nH]2)ccc(Cl)c1Cl [Example 3, 5-[5-(2-Propyl-3,4-dichlorophenoxy)pentyl]-tetrazole]
- Kb ([1]; *estimated): 251 nM
- inhibition at 1 µM [2]: 75%
- inhibition at 3 µM [2]: 92%
- inhibition at 0.3 µM [2]: 51%

SMILES: CCCc1c(OCCCCCCC(=O)O)ccc(Cl)c1Cl [Example 12, 7-(2-Propyl-3,4-dichlorophenoxy)heptanoic acid]
- inhibition at 3 µM [2]: 31%

SMILES: O=C(O)CCCCCOc1ccc(Cl)c(Cl)c1CCO [Example 10, 6-[2-(2-Hydroxyethyl)-3,4-dichlorophenoxy]hexanoic acid]
- inhibition at 3 µM [2]: 22%

SMILES: CCCCCCCCc1c(OCCCCCCc2nnn[nH]2)ccc(Cl)c1Cl [Example 6, 5-[6-(2-Octyl-3,4-dichlorophenoxy)hexyl]-tetrazole]
- inhibition at 1 µM [2]: 53%
- inhibition at 3 µM [2]: 59%

SMILES: CCCc1c(OCCCCCC(=O)O)ccc(Cl)c1Cl [Example 1, 6-(2-Propyl-3,4-dichlorophenoxy)hexanoic acid]
- inhibition at 1 µM [2]: 51%
- inhibition at 3 µM [2]: 78%

SMILES: CCCCCCCCCCCCc1c(OCCCCCc2nnn[nH]2)ccc(Cl)c1Cl [Example 7, 5-[5-(2-Dodecyl-3,4-dichlorophenoxy)pentyl]tetrazole]
- inhibition at 3 µM [2]: 16%

SMILES: CCCc1c(OCCCCc2nnn[nH]2)ccc(Cl)c1Cl [Example 2, 5-[4-(2-Propyl-3,4-dichlorophenoxy)butyl]-tetrazole]
- Kb [1]: 100 nM
- inhibition at 1 µM [2]: 94%
- inhibition at 0.1 µM [2]: 56%
- inhibition at 0.3 µM [2]: 70%

— patent US4764521A, “Leukotriene antagonists and a method of use there as” (Eli Lilly and Company, priority 1986, dated 1988)
